Measurements taken from patent US3951955A, “Penicillins substituted with heterocyclic groups” (Sumitomo Chemical Company, Limited, priority 1970, dated 1976).
Converted amounts (≈) assume the structure as drawn.

What was measured:
Escherichia coli NIHJ = experiment: minimal inhibitory concentration, agar dilution method (in vitro); type: cell-based
Text: (§1) When determined according to the agar dilution method, the penicillins [I] afford the minimal inhibitory concentrations as shown in the following Table 1: […]

[1] = tested on: Klebsiella pneumoniae 602; experiment: as above; type: cell-based
Text: as §1

Proteus miravilis 2425 = experiment: as above; type: cell-based
Text: as §1

[2] = tested on: Pseudomonas aeruginosa 104; experiment: as above; type: cell-based
Text: as §1

[3] = tested on: Staphylococcus aureus 209P; experiment: as above; type: cell-based
Text: as §1

[4] = tested on: various gram-positive and gram-negative bacteria; details: background statement on prior art; cited from earlier work
Pseudomonas = details: background statement on prior art; cited from earlier work

MIC (Escherichia coli NIHJ)	MIC [1]	MIC (Proteus miravilis 2425)	MIC [2]	MIC [3]	SMILES	growth inhibition / antimicrobial activity against gram-positive and gram-negative bacteria [4]	antimicrobial activity against Pseudomonas (Pseudomonas)
1.56 µg/mL (≈ 2.96 µM)	3.13 µg/mL (≈ 5.93 µM)	3.13 µg/mL (≈ 5.93 µM)	6.25 µg/mL (≈ 11.8 µM)	0.78 µg/mL (≈ 1.48 µM)	CC1(C)SC2C(NC(=O)C(NC(=O)c3cnc4cccnc4c3O)c3cccs3)C(=O)N2C1C(=O)O (centres unmarked) [Example 39]		
3.13 µg/mL (≈ 5.51 µM)	3.13 µg/mL (≈ 5.51 µM)	3.13 µg/mL (≈ 5.51 µM)	6.25 µg/mL (≈ 11 µM)	1.56 µg/mL (≈ 2.74 µM)	COc1nc(O)nc2c(O)c(C(=O)NC(C(=O)NC3C(=O)N4C3SC(C)(C)C4C(=O)O)c3ccccc3)cnc12 (centres unmarked) [Example 52]		
3.13 µg/mL (≈ 5.84 µM)	3.13 µg/mL (≈ 5.84 µM)	3.13 µg/mL (≈ 5.84 µM)	6.25 µg/mL (≈ 11.7 µM)	1.56 µg/mL (≈ 2.91 µM)	Cc1cnc2c(O)c(C(=O)NC(C(=O)NC3C(=O)N4C3SC(C)(C)C4C(=O)O)c3ccccc3)cnc2c1 (centres unmarked) [Example 33]		
12.5 µg/mL (≈ 20.9 µM)	0.39 µg/mL (≈ 0.651 µM)	3.13 µg/mL (≈ 5.23 µM)	6.25 µg/mL (≈ 10.4 µM)	0.39 µg/mL (≈ 0.651 µM)	CC1(C)S[C@@H]2[C@H](NC(=O)C(NC(=O)c3cnc4cc(S(C)(=O)=O)ccc4c3O)c3ccccc3)C(=O)N2[C@H]1C(=O)O (some centres unmarked) [Example 22]		
6.25 µg/mL (≈ 9.3 µM)	3.13 µg/mL (≈ 4.66 µM)	3.13 µg/mL (≈ 4.66 µM)	6.25 µg/mL (≈ 9.3 µM)	1.56 µg/mL (≈ 2.32 µM)	CC1(C)SC2C(NC(=O)C(NC(=O)c3cnc4cnc(NC(=O)OCc5ccccc5)nc4c3O)c3ccccc3)C(=O)N2C1C(=O)O (centres unmarked) [Example 57]		
6.25 µg/mL (≈ 11.4 µM)	0.78 µg/mL (≈ 1.42 µM)	1.56 µg/mL (≈ 2.83 µM)	6.25 µg/mL (≈ 11.4 µM)	0.39 µg/mL (≈ 0.708 µM)	COc1ccc2ncc(C(=O)NC(C(=O)N[C@@H]3C(=O)N4[C@@H]3SC(C)(C)[C@@H]4C(=O)O)c3ccccc3)c(O)c2c1 (some centres unmarked) [Example 19]		
0.78 µg/mL (≈ 1.32 µM)	0.78 µg/mL (≈ 1.32 µM)	1.56 µg/mL (≈ 2.63 µM)	3.13 µg/mL (≈ 5.28 µM)	0.78 µg/mL (≈ 1.32 µM)	CCN(CC)c1ccc2ncc(C(=O)NC(C(=O)NC3C(=O)N4C3SC(C)(C)C4C(=O)O)c3ccccc3)c(O)c2n1 (centres unmarked) [Example 37]		
3.13 µg/mL (≈ 5.03 µM)	0.39 µg/mL (≈ 0.626 µM)	1.56 µg/mL (≈ 2.51 µM)	3.13 µg/mL (≈ 5.03 µM)	0.2 µg/mL (≈ 0.321 µM)	CCOC(=O)Oc1c(C(=O)NC(C(=O)N[C@@H]2C(=O)N3[C@@H]2SC(C)(C)[C@@H]3C(=O)O)c2ccccc2)cnc2cc(OC)ccc12 (some centres unmarked) [Example 17]		
3.13 µg/mL (≈ 5.54 µM)	6.25 µg/mL (≈ 11.1 µM)	6.25 µg/mL (≈ 11.1 µM)	6.25 µg/mL (≈ 11.1 µM)	0.78 µg/mL (≈ 1.38 µM)	CCNc1ccc2ncc(C(=O)NC(C(=O)NC3C(=O)N4C3SC(C)(C)C4C(=O)O)c3ccccc3)c(O)c2n1 (centres unmarked) [Example 41]		
3.13 µg/mL (≈ 5.99 µM)	3.13 µg/mL (≈ 5.99 µM)	6.25 µg/mL (≈ 12 µM)	3.13 µg/mL (≈ 5.99 µM)	0.78 µg/mL (≈ 1.49 µM)	CC1(C)SC2C(NC(=O)C(NC(=O)c3cnc4ncncc4c3O)c3ccccc3)C(=O)N2C1C(=O)O (centres unmarked) [Example 47]		

Further lines, the molecule ahead of its results:

SMILES	MIC (Escherichia coli NIHJ)	MIC [1]	MIC (Proteus miravilis 2425)	MIC [2]	MIC [3]	growth inhibition / antimicrobial activity against gram-positive and gram-negative bacteria [4]	antimicrobial activity against Pseudomonas (Pseudomonas)
CC1(C)SC2C(NC(=O)C(NC(=O)c3cnc4ccc(N)nc4c3O)c3ccccc3)C(=O)N2C1C(=O)O (centres unmarked) [Example 40]	1.56 µg/mL (≈ 2.91 µM)	1.56 µg/mL (≈ 2.91 µM)	1.56 µg/mL (≈ 2.91 µM)	3.13 µg/mL (≈ 5.83 µM)	0.78 µg/mL (≈ 1.45 µM)		
CCCCNc1ccc2ncc(C(=O)NC(C(=O)NC3C(=O)N4C3SC(C)(C)C4C(=O)O)c3ccccc3)c(O)c2n1 (centres unmarked) [Example 36]	1.56 µg/mL (≈ 2.63 µM)	3.13 µg/mL (≈ 5.28 µM)	3.13 µg/mL (≈ 5.28 µM)	3.13 µg/mL (≈ 5.28 µM)	1.56 µg/mL (≈ 2.63 µM)		
COc1nccc2ncc(C(=O)NC(C(=O)NC3C(=O)N4C3SC(C)(C)C4C(=O)O)c3ccccc3)c(O)c12 (centres unmarked) [Example 44]	12.5 µg/mL (≈ 22.7 µM)	12.5 µg/mL (≈ 22.7 µM)	6.25 µg/mL (≈ 11.3 µM)	12.5 µg/mL (≈ 22.7 µM)	0.78 µg/mL (≈ 1.41 µM)		
CN(C)c1nccc2ncc(C(=O)NC(C(=O)NC3C(=O)N4C3SC(C)(C)C4C(=O)O)c3ccccc3)c(O)c12 (centres unmarked) [Example 45]	6.25 µg/mL (≈ 11.1 µM)	3.13 µg/mL (≈ 5.54 µM)	6.25 µg/mL (≈ 11.1 µM)	12.5 µg/mL (≈ 22.1 µM)	0.78 µg/mL (≈ 1.38 µM)		
Cc1nc(C)c2ncc(C(=O)NC(C(=O)NC3C(=O)N4C3SC(C)(C)C4C(=O)O)c3ccccc3)c(O)c2n1 (centres unmarked) [Example 55]	3.13 µg/mL (≈ 5.68 µM)	1.56 µg/mL (≈ 2.83 µM)	3.13 µg/mL (≈ 5.68 µM)	3.13 µg/mL (≈ 5.68 µM)	0.78 µg/mL (≈ 1.42 µM)		
CNc1ccc2ncc(C(=O)NC(C(=O)NC3C(=O)N4C3SC(C)(C)C4C(=O)O)c3ccccc3)c(O)c2n1 (centres unmarked) [Example 35]	1.56 µg/mL (≈ 2.83 µM)	3.13 µg/mL (≈ 5.68 µM)	6.25 µg/mL (≈ 11.4 µM)	3.13 µg/mL (≈ 5.68 µM)	0.78 µg/mL (≈ 1.42 µM)		
CC(=O)Nc1ccc2ncc(C(=O)NC(C(=O)N[C@@H]3C(=O)N4[C@@H]3SC(C)(C)[C@@H]4C(=O)O)c3ccccc3)c(O)c2c1 (some centres unmarked) [Example 23]	12.5 µg/mL (≈ 21.6 µM)	3.13 µg/mL (≈ 5.42 µM)	3.13 µg/mL (≈ 5.42 µM)	12.5 µg/mL (≈ 21.6 µM)	0.78 µg/mL (≈ 1.35 µM)		
Cc1nc(C)c2c(O)c(C(=O)NC(C(=O)NC3C(=O)N4C3SC(C)(C)C4C(=O)O)c3ccccc3)cnc2n1 (centres unmarked) [Example 48]	12.5 µg/mL (≈ 22.7 µM)	3.13 µg/mL (≈ 5.68 µM)	6.25 µg/mL (≈ 11.4 µM)	12.5 µg/mL (≈ 22.7 µM)	0.78 µg/mL (≈ 1.42 µM)		
CC1(C)SC2C(NC(=O)C(NC(=O)c3cnc4cncnc4c3O)c3ccccc3)C(=O)N2C1C(=O)O (centres unmarked) [Example 50]	1.56 µg/mL (≈ 2.99 µM)	0.78 µg/mL (≈ 1.49 µM)	1.56 µg/mL (≈ 2.99 µM)	3.13 µg/mL (≈ 5.99 µM)	0.78 µg/mL (≈ 1.49 µM)		
Cc1ncc2ncc(C(=O)NC(C(=O)NC3C(=O)N4C3SC(C)(C)C4C(=O)O)c3ccccc3)c(O)c2n1 (centres unmarked) [Example 56]	3.13 µg/mL (≈ 5.83 µM)	3.13 µg/mL (≈ 5.83 µM)	6.25 µg/mL (≈ 11.6 µM)	3.13 µg/mL (≈ 5.83 µM)	0.78 µg/mL (≈ 1.45 µM)		
CC(=O)CC(=O)Nc1ccc2ncc(C(=O)NC(C(=O)NC3C(=O)N4C3SC(C)(C)C4C(=O)O)c3ccccc3)c(O)c2n1 (centres unmarked) [Example 31]	3.13 µg/mL (≈ 5.04 µM)	6.25 µg/mL (≈ 10.1 µM)	6.25 µg/mL (≈ 10.1 µM)	6.25 µg/mL (≈ 10.1 µM)	0.78 µg/mL (≈ 1.26 µM)		
CC(=O)Nc1ccc2ncc(C(=O)NC(C(=O)N[C@@H]3C(=O)N4[C@@H]3SC(C)(C)[C@@H]4C(=O)O)c3ccccc3)c(O)c2n1 (some centres unmarked) [Example 30]	3.13 µg/mL (≈ 5.41 µM)	3.13 µg/mL (≈ 5.41 µM)	6.25 µg/mL (≈ 10.8 µM)	6.25 µg/mL (≈ 10.8 µM)	0.78 µg/mL (≈ 1.35 µM)		
CC1(C)S[C@@H]2C(NC(=O)C(N)c3ccccc3)C(=O)N2[C@H]1C(=O)O (stereo partly drawn) [Ampicillin, 6-(α-aminophenylacetamido)-penicillanic acid, reference compound]	6.25 µg/mL (≈ 17.9 µM)	50 µg/mL (≈ 143 µM)	3.13 µg/mL (≈ 8.96 µM)	> 200 µg/mL	0.2 µg/mL (≈ 0.572 µM)	inhibits the growth of various gram-positive and gram-negativebacteria	does not exert any appreciable antimicrobial activity against Pseudomonas
CC1(C)SC2C(NC(=O)C(NC(=O)c3cnc4nc(N)ncc4c3O)c3ccccc3)C(=O)N2C1C(=O)O (centres unmarked) [Example 49]	6.25 µg/mL (≈ 11.6 µM)	6.25 µg/mL (≈ 11.6 µM)	6.25 µg/mL (≈ 11.6 µM)	12.5 µg/mL (≈ 23.3 µM)	0.78 µg/mL (≈ 1.45 µM)		
